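GI50 marks 50% less growth. TGI: total growth inhibition.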
Assays:
Assay in all cases: NCI anticancer screen, dose series, 384-well format
[1] = system: SNB-19 CNS
[2] = system: MDA-MB-231 breast
[3] = system: MCF7 breast
[4] = system: OVCAR-4 ovarian
[5] = system: MALME-3M melanoma
[6] = system: HOP-92 NSCLC
[7] = system: RPMI-8226 leukemia
[8] = system: COLO 205 colon
[9] = system: MDA-MB-435 melanoma
[10] = system: SK-MEL-5 melanoma
[11] = system: SF-539 CNS
[12] = system: HS 578T breast
[13] = system: MDA-MB-468 breast
[14] = system: ACHN renal
[15] = system: NCI-H522 lung
[16] = system: OVCAR-5 ovarian
[17] = system: UO-31 renal
[18] = system: HT29 colon
[19] = system: SK-MEL-28 melanoma
[20] = system: NCI-H460 NSCLC
[21] = system: HCC-2998 colon
[22] = system: SK-OV-3 ovarian
[23] = system: NCI-H322M lung
[24] = system: CCRF-CEM leukemia
[25] = system: HCT-15 colon
[26] = system: BT-549 breast
[27] = system: UACC-257 melanoma
[28] = system: SN12C renal
[29] = system: RXF 393 renal
[30] = system: CAKI-1 renal
[31] = system: HOP-62 NSCLC
[32] = system: HCT-116 colon
[33] = system: OVCAR-3 ovarian
[34] = system: EKVX NSCLC
[35] = system: U251 glioblastoma
[36] = system: NCI-H23 lung
[37] = system: A498 renal
[38] = system: SR leukemia
[39] = system: T-47D breast
[40] = system: LOX IMVI melanoma
[41] = system: IGROV1 ovarian
[42] = system: 786-0 renal
[43] = system: OVCAR-8 ovarian
[44] = system: TK-10 renal
[45] = system: SNB-75 CNS
[46] = system: M14 melanoma
[47] = system: NCI/ADR-RES ovarian
[48] = system: SF-268 CNS
[49] = system: SW-620 colon
[50] = system: A549 NSCLC
[51] = system: NCI-H226 lung
[52] = system: K-562 leukemia
[53] = system: MOLT-4 leukemia
[54] = system: SF-295 CNS
[55] = system: PC-3 prostate
[56] = system: DU-145 prostate
[57] = system: KM12 colon
[58] = system: HL-60(TB) leukemia

COc1cccc2c1ccc1nc3cccc(C(=O)N[C@H](C)CN(C)C)c3nc12
GI50 [1]: 75.2 nM
TGI [1]: 1050 nM
GI50 [2]: 110 nM
TGI [2]: 393 nM
GI50 [3]: 46.7 nM
TGI [3]: 1100 nM
GI50 [4]: 130 nM
TGI [4]: 388 nM
GI50 [5]: 28.3 nM
TGI [5]: 0.068 µM
GI50 [6]: 92 nM
TGI [6]: 1.62 µM
GI50 [7]: 27.1 nM
TGI [7]: 74.6 nM
GI50 [8]: 12.8 nM
TGI [8]: 99.9 nM
GI50 [9]: 106 nM
TGI [9]: 229 nM
GI50 [10]: 35.3 nM
TGI [10]: 90.4 nM
GI50 [11]: 52.8 nM
TGI [11]: 174 nM
GI50 [12]: 141 nM
TGI [12]: 289 nM
GI50 [13]: 23.8 nM
TGI [13]: 63.9 nM
GI50 [14]: 28.3 nM
TGI [14]: 243 nM
GI50 [15]: 102 nM
TGI [15]: 278 nM
GI50 [16]: 127 nM
TGI [16]: 12.2 µM
GI50 [17]: 56.1 nM
TGI [17]: 398 nM
GI50 [18]: 103 nM
TGI [18]: 11.8 µM
GI50 [19]: 123 nM
TGI [19]: 291 nM
GI50 [20]: 34.4 nM
TGI [20]: 112 nM
GI50 [21]: 41.4 nM
TGI [21]: 162 nM
GI50 [22]: 85 nM
TGI [22]: 430 nM
GI50 [23]: 115 nM
TGI [23]: 361 nM
GI50 [24]: 42.3 nM
TGI [24]: 160 nM
GI50 [25]: 41.3 nM
TGI [25]: 187 nM
GI50 [26]: 125 nM
TGI [26]: 268 nM
GI50 [27]: 104 nM
TGI [27]: 230 nM
GI50 [28]: 77.4 nM
TGI [28]: 249 nM
GI50 [29]: 111 nM
TGI [29]: 242 nM
GI50 [30]: 37.3 nM
TGI [30]: 2720 nM
GI50 [31]: 56 nM
TGI [31]: 0.231 µM
GI50 [32]: 35.3 nM
TGI [32]: 1080 nM
GI50 [33]: 72.9 nM
TGI [33]: 292 nM
GI50 [34]: 156 nM
TGI [34]: 380 nM
GI50 [35]: 57.8 nM
TGI [35]: 311 nM
GI50 [36]: 91.5 nM
TGI [36]: 216 nM
GI50 [37]: 51.1 nM
TGI [37]: 384 nM
TGI [38]: 20.4 nM
GI50 [39]: 117 nM
TGI [39]: 315 nM
GI50 [40]: 45.9 nM
TGI [40]: 155 nM
GI50 [41]: 61.9 nM
TGI [41]: 609 nM
GI50 [42]: 57.5 nM
TGI [42]: 861 nM
GI50 [43]: 96.8 nM
TGI [43]: 0.273 µM
GI50 [44]: 90.5 nM
TGI [44]: 0.554 µM
GI50 [45]: 111 nM
TGI [45]: 238 nM
GI50 [46]: 101 nM
TGI [46]: 225 nM
GI50 [47]: 55.2 nM
TGI [47]: 215 nM
GI50 [48]: 63.5 nM
TGI [48]: 228 nM
GI50 [49]: 29.9 nM
TGI [49]: 290 nM
GI50 [50]: 42.9 nM
TGI [50]: 904 nM
GI50 [51]: 73.4 nM
TGI [51]: 340 nM
GI50 [52]: 45.4 nM
TGI [52]: 156 nM
GI50 [53]: 15.5 nM
TGI [53]: 29.1 nM
GI50 [54]: 37.6 nM
TGI [54]: 221 nM
GI50 [55]: 142 nM
TGI [55]: 603 nM
GI50 [56]: 69.2 nM
TGI [56]: 524 nM
GI50 [57]: 84.7 nM
TGI [57]: 881 nM

O=C(Nc1ccncc1)C(=O)c1cn(Cc2ccc(Cl)cc2)c2ccccc12
GI50 [1]: 13.8 nM
TGI [1]: > 100000 nM
GI50 [2]: 46.8 nM
TGI [2]: > 100000 nM
GI50 [3]: < 10 nM
TGI [3]: > 100000 nM
GI50 [4]: 23 nM
TGI [4]: > 100000 nM
GI50 [5]: < 10 nM
TGI [5]: 23.4 µM
GI50 [6]: 10.4 nM
TGI [6]: 34.3 µM
GI50 [7]: < 10 nM
TGI [7]: < 10 nM
GI50 [8]: 126 nM
TGI [8]: 353 nM
GI50 [9]: < 10 nM
TGI [9]: < 10 nM
GI50 [10]: < 10 nM
TGI [10]: 11.6 nM
GI50 [11]: < 10 nM
TGI [11]: 24.7 nM
GI50 [12]: < 10 nM
TGI [12]: < 10 nM
GI50 [13]: < 10 nM
TGI [13]: 20.8 nM
GI50 [14]: < 10 nM
TGI [14]: > 100000 nM
GI50 [15]: < 10 nM
TGI [15]: < 10 nM
GI50 [16]: 894 nM
TGI [16]: > 100 µM
GI50 [17]: < 10 nM
TGI [17]: > 100000 nM
GI50 [18]: < 10 nM
TGI [18]: > 100 µM
GI50 [20]: < 10 nM
TGI [20]: 52.7 nM
GI50 [58]: < 10 nM
TGI [58]: < 10 nM
GI50 [21]: < 10 nM
TGI [21]: 377 nM
GI50 [22]: 25 nM
TGI [22]: > 100000 nM
GI50 [23]: 44.8 nM
TGI [23]: > 100000 nM
GI50 [24]: < 10 nM
TGI [24]: 16.5 nM
GI50 [25]: < 10 nM
TGI [25]: > 100000 nM
GI50 [26]: < 10 nM
TGI [26]: > 100000 nM
GI50 [28]: 17.3 nM
TGI [28]: > 100000 nM
GI50 [29]: < 10 nM
TGI [29]: < 10 nM
GI50 [30]: < 10 nM
TGI [30]: > 100000 nM
GI50 [31]: < 10 nM
TGI [31]: 24.1 µM
GI50 [32]: < 10 nM
TGI [32]: > 100000 nM
GI50 [33]: < 10 nM
TGI [33]: < 10 nM
GI50 [34]: < 10 nM
TGI [34]: > 100000 nM
GI50 [35]: < 10 nM
TGI [35]: 1950 nM
GI50 [36]: < 10 nM
TGI [36]: 67.4 nM
GI50 [37]: 30.5 nM
TGI [37]: > 100000 nM
GI50 [38]: < 10 nM
TGI [38]: < 10 nM
GI50 [40]: < 10 nM
TGI [40]: > 100000 nM
GI50 [41]: < 10 nM
TGI [41]: > 100000 nM
GI50 [42]: < 10 nM
TGI [42]: 2010 nM
GI50 [43]: < 10 nM
TGI [43]: 14.1 µM
GI50 [44]: < 10 nM
TGI [44]: 72.2 µM
GI50 [45]: < 10 nM
TGI [45]: 3230 nM
GI50 [46]: < 10 nM
TGI [46]: 36.8 nM
GI50 [47]: < 10 nM
TGI [47]: < 10 nM
GI50 [48]: < 10 nM
TGI [48]: > 100000 nM
GI50 [49]: < 10 nM
TGI [49]: > 100000 nM
GI50 [50]: 1090 nM
TGI [50]: > 100000 nM
GI50 [51]: < 10 nM
TGI [51]: 787 nM
GI50 [52]: < 10 nM
TGI [52]: 11.9 nM
GI50 [53]: < 10 nM
TGI [53]: < 10 nM
GI50 [54]: < 10 nM
TGI [54]: < 10 nM
GI50 [55]: < 10 nM
TGI [55]: > 100000 nM
GI50 [56]: 20.8 nM
TGI [56]: > 100000 nM
GI50 [57]: < 10 nM
TGI [57]: > 100000 nM
